Test results: ChEMBL document CHEMBL4837183, “Antiproliferative Bufadienolides from the Bulbs of Drimia altissima” (2021)

How the values were obtained:
Format in all cases: functional
NCI/ADR-RES = experiment: Growth inhibition of human NCI/ADR-RES cells measured after 48 hrs by SRB assay
SF-295 = experiment: Growth inhibition of human SF-295 cells measured after 48 hrs by SRB assay
MDA-MB-468 = experiment: Growth inhibition of human MDA-MB-468 cells measured after 48 hrs by SRB assay
HOP-92 = experiment: Growth inhibition of human HOP-92 cells measured after 48 hrs by SRB assay
Malme-3M = experiment: Growth inhibition of human Malme-3M cells measured after 48 hrs by SRB assay
MDA-MB-435 = experiment: Growth inhibition of human MDA-MB-435 cells measured after 48 hrs by SRB assay
SK-MEL-5 = experiment: Growth inhibition of human SK-MEL-5 cells measured after 48 hrs by SRB assay
KM12 = experiment: Growth inhibition of human KM12 cells measured after 48 hrs by SRB assay
Hs-578T = experiment: Growth inhibition of human Hs-578T cells measured after 48 hrs by SRB assay
SW-620 = experiment: Growth inhibition of human SW-620 cells measured after 48 hrs by SRB assay
ACHN = experiment: Growth inhibition of human ACHN cells measured after 48 hrs by SRB assay
LOX IMVI = experiment: Growth inhibition of human LOX IMVI cells measured after 48 hrs by SRB assay
SNB-75 = experiment: Growth inhibition of human SNB-75 cells measured after 48 hrs by SRB assay
NCI-H23 = experiment: Growth inhibition of human NCI-H23 cells measured after 48 hrs by SRB assay
MOLT-4 = experiment: Growth inhibition of human MOLT-4 cells measured after 48 hrs by SRB assay
HOP-62 = experiment: Growth inhibition of human HOP-62 cells measured after 48 hrs by SRB assay
OVCAR-5 = experiment: Growth inhibition of human OVCAR-5 cells measured after 48 hrs by SRB assay
MDA-MB-231 = experiment: Growth inhibition of human MDA-MB-231 cells measured after 48 hrs by SRB assay
BT-549 = experiment: Growth inhibition of human BT-549 cells measured after 48 hrs by SRB assay
UACC-62 = experiment: Growth inhibition of human UACC-62 cells measured after 48 hrs by SRB assay
HL-60 = experiment: Growth inhibition of human HL-60 cells measured after 48 hrs by SRB assay
NCI-H460 = experiment: Growth inhibition of human NCI-H460 cells measured after 48 hrs by SRB assay
PC-3 = experiment: Growth inhibition of human PC-3 cells measured after 48 hrs by SRB assay
SF-539 = experiment: Growth inhibition of human SF-539 cells measured after 48 hrs by SRB assay
HCT-15 = experiment: Growth inhibition of human HCT-15 cells measured after 48 hrs by SRB assay
K562 = experiment: Growth inhibition of human K562 cells measured after 48 hrs by SRB assay
DU-145 = experiment: Growth inhibition of human DU-145 cells measured after 48 hrs by SRB assay
HCT-116 = experiment: Growth inhibition of human HCT-116 cells measured after 48 hrs by SRB assay
786-0 = experiment: Growth inhibition of human 786-0 cells measured after 48 hrs by SRB assay
SK-MEL-28 = experiment: Growth inhibition of human SK-MEL-28 cells measured after 48 hrs by SRB assay
UACC-257 = experiment: Growth inhibition of human UACC-257 cells measured after 48 hrs by SRB assay
A498 = experiment: Growth inhibition of human A498 cells measured after 48 hrs by SRB assay
UO-31 = experiment: Growth inhibition of human UO-31 cells measured after 48 hrs by SRB assay
NCI-H522 = experiment: Growth inhibition of human NCI-H522 cells measured after 48 hrs by SRB assay
U-251 = experiment: Growth inhibition of human U-251 cells measured after 48 hrs by SRB assay
COLO 205 = experiment: Growth inhibition of human COLO 205 cells measured after 48 hrs by SRB assay
TK-10 = experiment: Growth inhibition of human TK-10 cells measured after 48 hrs by SRB assay
OVCAR-8 = experiment: Growth inhibition of human OVCAR-8 cells measured after 48 hrs by SRB assay
OVCAR-3 = experiment: Growth inhibition of human OVCAR-3 cells measured after 48 hrs by SRB assay
SK-OV-3 = experiment: Growth inhibition of human SK-OV-3 cells measured after 48 hrs by SRB assay
SK-MEL-2 = experiment: Growth inhibition of human SK-MEL-2 cells measured after 48 hrs by SRB assay
CAKI-1 = experiment: Growth inhibition of human CAKI-1 cells measured after 48 hrs by SRB assay
CCRF-CEM = experiment: Growth inhibition of human CCRF-CEM cells measured after 48 hrs by SRB assay
SF-268 = experiment: Growth inhibition of human SF-268 cells measured after 48 hrs by SRB assay
NCI-H226 = experiment: Growth inhibition of human NCI-H226 cells measured after 48 hrs by SRB assay
RXF 393 = experiment: Growth inhibition of human RXF 393 cells measured after 48 hrs by SRB assay
HT-29 = experiment: Growth inhibition of human HT-29 cells measured after 48 hrs by SRB assay
IGROV-1 = experiment: Growth inhibition of human IGROV-1 cells measured after 48 hrs by SRB assay
NCI-H322M = experiment: Growth inhibition of human NCI-H322M cells measured after 48 hrs by SRB assay
MCF7 = experiment: Growth inhibition of human MCF7 cells measured after 48 hrs by SRB assay
SN12C = experiment: Growth inhibition of human SN12C cells measured after 48 hrs by SRB assay
SR = experiment: Growth inhibition of human SR cells measured after 48 hrs by SRB assay
SNB-19 = experiment: Growth inhibition of human SNB-19 cells measured after 48 hrs by SRB assay
HCC 2998 = experiment: Growth inhibition of human HCC 2998 cells measured after 48 hrs by SRB assay
A549 = experiment: Growth inhibition of human A549 cells measured after 48 hrs by SRB assay
M14 = experiment: Growth inhibition of human M14 cells measured after 48 hrs by SRB assay
T47D = experiment: Growth inhibition of human T47D cells measured after 48 hrs by SRB assay

In the case of C[C@]12CC[C@H](O[C@@H]3O[C@H](CO)[C@@H](O)[C@H](O)[C@H]3O)C=C1CC[C@@H]1[C@@H]2[C@@H](O)C[C@]2(C)[C@@H](c3ccc(=O)oc3)CC[C@]12O, the GI50 (NCI/ADR-RES) is reported as 33 nM, the GI50 (SF-295) is reported as 61 nM and the GI50 (MDA-MB-468) is reported as 109 nM. For the same compound, the GI50 (HOP-92) was 66 nM, the GI50 (Malme-3M) was 63 nM and the GI50 (MDA-MB-435) was 73 nM. It also gave a GI50 (SK-MEL-5) of 55 nM, a GI50 (KM12) of 91 nM and a GI50 (Hs-578T) of 25 nM. The GI50 (SW-620) was 51 nM, the GI50 (ACHN) was 10 nM and the GI50 (LOX IMVI) was 64 nM. The GI50 (SNB-75) was 82 nM, the GI50 (NCI-H23) was 27 nM and the GI50 (MOLT-4) was 11 nM. For the same compound, the GI50 (HOP-62) was 26 nM, the GI50 (OVCAR-5) was 60 nM and the GI50 (MDA-MB-231) was 193 nM. The GI50 (BT-549) was 27 nM, the GI50 (UACC-62) was 7 nM and the GI50 (HL-60) was 50 nM. It also gave a GI50 (NCI-H460) of 13 nM, a GI50 (PC-3) of 46 nM and a GI50 (SF-539) of 31 nM. It also gave a GI50 (HCT-15) of 53 nM, a GI50 (K562) of 80 nM and a GI50 (DU-145) of 31 nM. It also gave a GI50 (HCT-116) of 15 nM, a GI50 (786-0) of 38 nM and a GI50 (SK-MEL-28) of 107 nM. For the same compound, the GI50 (UACC-257) was 93 nM, the GI50 (A498) was 38 nM and the GI50 (UO-31) was 34 nM. For the same compound, the GI50 (NCI-H522) was 9 nM, the GI50 (U-251) was 79 nM and the GI50 (COLO 205) was 102 nM. It also gave a GI50 (TK-10) of 31 nM, a GI50 (OVCAR-8) of 65 nM and a GI50 (OVCAR-3) of 36 nM. For the same compound, the GI50 (SK-OV-3) was 74 nM, the GI50 (SK-MEL-2) was 59 nM and the GI50 (CAKI-1) was 41 nM. It also gave a GI50 (CCRF-CEM) of 16 nM, a GI50 (SF-268) of 18 nM and a GI50 (NCI-H226) of 47 nM. It also gave a GI50 (RXF 393) of 20 nM, a GI50 (HT-29) of 81 nM and a GI50 (IGROV-1) of 64 nM. It also gave a GI50 (NCI-H322M) of 30 nM, a GI50 (MCF7) of 42 nM and a GI50 (SN12C) of 15 nM. It also gave a GI50 (SR) of 55 nM, a GI50 (SNB-19) of 108 nM and a GI50 (HCC 2998) of 136 nM. It also gave a GI50 (A549) of 15 nM, a GI50 (M14) of 83 nM and a GI50 (T47D) of 78 nM.
